# From ChEMBL document CHEMBL1201862, “PubChem BioAssay data set” (2004)
#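 Assay format: 96-well plates, 48-hour exposure. GI50 = concentration required for 50% inhibition of growth.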 Activity calls are given as the source filed them. No stated cut-off is given here; in the data, active = GI50 up to about 1.1 µM and inactive = higher.
# Legend:
# Assay in all cases: inhibition of tumour cell growth, NCI panel, 48 h
# HOP-92 = system: HOP-92
# A498 = system: A498
# U-251 = system: U-251
# MDA-MB-435 = system: MDA-MB-435
# SNB-19 = system: SNB-19
# T47D = system: T47D
# NCI/ADR-RES = system: NCI/ADR-RES
# A549 = system: A549
# HCT-15 = system: HCT-15
# BT-549 = system: BT-549
# Hs-578T = system: Hs-578T
# OVCAR-4 = system: OVCAR-4
# NCI-H522 = system: NCI-H522
# OVCAR-5 = system: OVCAR-5
# K562 = system: K562
# CCRF-CEM = system: CCRF-CEM
# TK-10 = system: TK-10
# M14 = system: M14
# Malme-3M = system: Malme-3M
# RXF 393 = system: RXF 393
SMILES,GI50 (HOP-92),GI50 (A498),GI50 (U-251),GI50 (MDA-MB-435),GI50 (SNB-19),GI50 (T47D),GI50 (NCI/ADR-RES),GI50 (A549),GI50 (HCT-15) [µM],GI50 (BT-549),GI50 (Hs-578T),GI50 (OVCAR-4),GI50 (NCI-H522),GI50 (OVCAR-5),GI50 (K562),GI50 (CCRF-CEM),GI50 (TK-10),GI50 (M14),GI50 (Malme-3M),GI50 (RXF 393)
COc1cc2c3cc1Oc1c(OC)c(OC)cc4c1C(Cc1ccc(O)c(c1)Oc1ccc(cc1)CC3N(C)CC2)N(C)CC4 (centres undefined),26.2 µM (inactive),23.7 µM (inactive),21.4 µM (inactive),> 10 µM (inactive),20.2 µM (inactive),27.8 µM (inactive),31.5 µM (inactive),26.3 µM (inactive),16.1,23.1 µM (inactive),24.2 µM (inactive),29 µM (inactive),31.5 µM (inactive),39.7 µM (inactive),7.78 µM (inactive),17.2 µM (inactive),42.8 µM (inactive),33.7 µM (inactive),59.2 µM (inactive),–
COc1cc(/C=N\NC(=O)C[N+](C)(C)C)cc(OC)c1OC,> 10 µM (inactive),–,> 10 µM (inactive),> 10 µM (inactive),> 10 µM (inactive),> 10 µM (inactive),> 10 µM (inactive),> 10 µM (inactive),> 10,> 10 µM (inactive),> 10 µM (inactive),> 10 µM (inactive),> 10 µM (inactive),> 10 µM (inactive),> 10 µM (inactive),> 10 µM (inactive),> 10 µM (inactive),> 10 µM (inactive),> 10 µM (inactive),–
Cc1c(/C=N/NC(=S)Nc2ccc(Cl)cc2)c(=O)n(-c2ccccc2)n1C,–,22.5 µM (inactive),15.5 µM (inactive),> 100 µM (inactive),27.9 µM (inactive),46.6 µM (inactive),17.3 µM (inactive),33.7 µM (inactive),17.9,0.0258 µM (active),18.3 µM (inactive),24.5 µM (inactive),7.08 µM (inactive),> 56.5 µM (inactive),> 100 µM (inactive),> 75.2 µM (inactive),23.6 µM (inactive),> 62.8 µM (inactive),> 34.7 µM (inactive),14.8 µM (inactive)
C=C1CC2(CCOc3ccc(Cl)cc32)OC1=O (centres undefined),3.48 µM (inactive),11.9 µM (inactive),8.63 µM (inactive),2.82 µM (inactive),13.1 µM (inactive),4.93 µM (inactive),6.47 µM (inactive),13.5 µM (inactive),0.935,0.352 µM (active),0.979 µM (active),1.91 µM (inactive),0.885 µM (active),10.6 µM (inactive),2.55 µM (inactive),1.45 µM (inactive),5.77 µM (inactive),2.54 µM (inactive),–,2.23 µM (inactive)
Cc1ccc(/N=N/C(=NNC(=O)c2ccc(C)cc2)c2ccc(N(C)C)cc2)cc1,28.6 µM (inactive),–,34.4 µM (inactive),16.6 µM (inactive),24.8 µM (inactive),71.3 µM (inactive),41.3 µM (inactive),28.6 µM (inactive),28.7,26.2 µM (inactive),28.1 µM (inactive),18.5 µM (inactive),20.9 µM (inactive),51.8 µM (inactive),24.9 µM (inactive),–,64.7 µM (inactive),24.8 µM (inactive),–,–
CCc1c[n+]([O-])c(C)cc1[N+](=O)[O-],35.8 µM (inactive),> 100 µM (inactive),99.5 µM (inactive),57.9 µM (inactive),> 100 µM (inactive),> 100 µM (inactive),> 100 µM (inactive),56.1 µM (inactive),18.8,> 100 µM (inactive),> 100 µM (inactive),–,55.3 µM (inactive),> 100 µM (inactive),48.6 µM (inactive),> 100 µM (inactive),35.2 µM (inactive),40.2 µM (inactive),40.1 µM (inactive),22.4 µM (inactive)
O=C1C=CC=C/C1=C1\N=C(c2ccccc2OCC(=O)c2ccc(Br)cc2)SS1,63.8 µM (inactive),> 100 µM (inactive),40.3 µM (inactive),> 100 µM (inactive),> 100 µM (inactive),> 100 µM (inactive),> 100 µM (inactive),> 100 µM (inactive),> 100,13.3 µM (inactive),15.2 µM (inactive),40.1 µM (inactive),–,> 100 µM (inactive),> 100 µM (inactive),> 100 µM (inactive),13.5 µM (inactive),73.3 µM (inactive),> 100 µM (inactive),30 µM (inactive)
